# Laboratory results taken from patent publication US20260250325A1, “Antiviral Polypeptide Membrane Fusion Inhibitor, and Preparation Method and Application Thereof” (priority 2025, published 2026).
# Where a SMILES comes first, the peptide text is derived from it. The star is where a group is joined. Succinyl(4-O-cholesteryl) = CC(C)CCC[C@@H](C)[C@H]1CC[C@H]2[C@@H]3CC=C4C[C@@H](OC(=O)CCC(=O)*)CC[C@]4(C)[C@H]3CC[C@]12C; X1 = CC(C)CCCC(C)C1CCC2C3CC=C4CC(OC(=O)CCC(=O)*)CCC4(C)C3CCC12C
# What was measured:
# [1] = Cytotoxicity test in HEp-2 cells (CCK8 cell viability); format: cell-based; details: human; HEp-2 cells, CCK8, 1 day; read-out: CC50
# Outline: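 HEp-2 cells seeded at 30,000/well, cultured overnight at 37° C./5% CO2, then exposed to diluted compound for 1 day in 0.5% DMSO. Viability read by CCK8, normalised to untreated-cell and medium-only controls; CC50 from four-parameter variable-slope fit.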
# [2] = test system: hPIV3 C243 virus strain; format: cell-based, hPIV; details: LLC-MK2 cells, hPIV3 C243, plaque reduction; read-out: EC50 against hPIV3 virus
# Protocol: Rhesus monkey kidney cells (LLC-MK2) were sourced from the ATCC, with a catalog number CCL-7.1. The cells were cultured in a DMEM culture solution in which 10% fetal bovine serum, 1% non-essential amino acids, 1% sodium pyruvate, 1% L-glutamine, 100 U/ml penicillin, and 100 μg/ml streptomycin were added.
# An HPIV-3 plaque experiment culture medium consisted of a DMEM culture solution added with 2% fetal bovine serum, 1% non-essential amino acids, 1% sodium pyruvate, 1% L-glutamine, 100 U/ml penicillin, and 100 μg/ml streptomycin.
# The hPIV Type 3 (hPIV3 C243) was sourced from the ATCC, with a catalog number VR-93.
# This study used the plaque reduction experiment to detect the in-vitro activity of the test sample against the hPIV3 C243 virus strain, and Human Anti-HPIV3 Monoclonal Antibody, clone PIA174 was an experimental system control. The test sample and a system experimental antibody were tested at 8 concentrations in duplicated wells.
# The LLC-MK2 cells were digested with trypsin and then diluted to a concentration of 400,000 cells per milliliter by using a cell culture solution containing 2% serum. The diluted cells were added to a 96-well cell test board, with 100 μL per well, corresponding to 40,000 cells per well. The cells were cultured overnight in a 37° C. incubator with 5% CO2.
# On the next day, the sample diluted at a fold ratio and an equal volume of virus (approximately 200 PFU per well) were well mixed and incubated at 37° C. in 5% CO2 for 1 hour. Then, the culture solution in the 96-well cell test board was discarded, the sample virus mixed solution (100 μL) was added to the 96-well cell culture plate, and incubated at 37° C. in 5% CO2 for 2 hours. After 2 h, the sample virus mixed solution was discarded, 200 μL of an experiment culture medium containing the test sample with a corresponding concentration was added, and the culture solution contained 0.8% CMC. A final concentration of DMSO in the culture solution was 0.5%. A control antibody was directly added to the experiment culture solution containing 0.8% CMC. A cell control (cells, without compound treatment or viral infection) and a viral control (cell infection virus, without compound treatment) were set. The cells were cultured for 1 day in the 37° C. incubator with 5% CO2.
# The cells were fixed with 4% paraformaldehyde, and then permeabilization was performed with 0.5% Triton X-100. After the plate was washed with DPBS, a hPIV specific antibody (1:2000 dilution) was added and incubated at 37° C. for 1.5 h. Then, a secondary antibody (1:500 dilution) was added and incubated at 37° C. for 1 hour. The secondary antibody was discarded, a TrueBlue solution was added, dyeing was performed for approximately 10 minutes; and the plate was washed with running water and then air-dried, and the number of spots in each well was counted by using a microplate imaging counter.
# Raw data was used for calculating the antiviral activity of the samples, and a calculation formula was shown as follows.
# % inhibition rate=100−(sample value-cell control average value)/(virus control average value-cell control average value)×100
# Non-linear fitting analysis was performed on the inhibition rate of the sample by using GraphPad Prism (version 10), so as to calculate an EC50 value for the sample. A fitting formula was log (inhibitor) vs. response-Variable slope (four parameters).
Molecule,CC50 at 1 day [1] [nM],EC50 [2] [nM]
CC[C@H](C)[C@H](NC(=O)[C@H](CCCCN)NC(=O)[C@H](CCCCN)NC(=O)[C@H](CC(C)C)NC(=O)[C@H](CO)NC(=O)[C@H](CCC(=O)O)NC(=O)[C@H](CCC(=O)O)NC(=O)[C@@H](NC(=O)[C@H](CCCCN)NC(=O)[C@H](CCCCN)NC(=O)[C@H](CC(N)=O)NC(=O)[C@@H](NC(=O)[C@H](CCC(=O)O)NC(=O)[C@H](CCC(=O)O)NC(=O)[C@@H](NC(=O)[C@H](CCCCN)NC(=O)[C@H](CCCCN)NC(=O)[C@H](CC(=O)O)NC(=O)[C@H](Cc1ccccc1)NC(=O)[C@H](CCC(=O)O)NC(=O)[C@H](CC(=O)O)NC(C)=O)[C@@H](C)CC)C(C)C)[C@@H](C)CC)C(=O)N[C@@H](CCC(=O)O)C(=O)N[C@@H](CCC(=O)O)C(=O)N[C@@H](CO)C(=O)N[C@@H](CC(=O)O)C(=O)N[C@@H](CCCCN)C(=O)N[C@@H](CCCCN)C(=O)N[C@@H](CC(C)C)C(=O)N[C@@H](CCC(=O)O)C(=O)N[C@@H](CCC(=O)O)C(=O)N[C@H](C(=O)N[C@@H](CCC(=O)O)C(=O)N[C@@H](C)C(=O)N[C@@H](C)C(=O)N[C@@H](C)C(=O)N[C@@H](CCCCN)C(=O)N[C@@H](CCCCNC(=O)CCC(=O)OC1CCC2(C)C(=CCC3C2CCC2(C)C(C(C)CCCC(C)C)CCC32)C1)C(N)=O)C(C)C (some centres unmarked) [Compound 21] (Ac-DEFDKKIEEVNKKIEESLKKIEESDKKLEEVEAAAKK(X1)-NH2),18300,21.3
CC[C@H](C)[C@H](NC(=O)[C@H](CO)NC(=O)[C@H](C)NC(=O)[C@H](CC(=O)O)NC(=O)[C@H](Cc1ccccc1)NC(=O)[C@H](CCC(=O)O)NC(=O)[C@H](CC(=O)O)NC(=O)[C@H](Cc1c[nH]c2ccccc12)NC(C)=O)C(=O)N[C@@H](CO)C(=O)N[C@@H](CCC(N)=O)C(=O)N[C@H](C(=O)N[C@@H](CC(N)=O)C(=O)N[C@@H](CCC(=O)O)C(=O)N[C@@H](CCCCN)C(=O)N[C@H](C(=O)N[C@@H](CC(N)=O)C(=O)N[C@@H](CCC(N)=O)C(=O)N[C@@H](CO)C(=O)N[C@@H](CC(C)C)C(=O)N[C@@H](CCC(=O)O)C(=O)N[C@@H](CCC(=O)O)C(=O)N[C@H](C(=O)N[C@@H](CCCNC(=N)N)C(=O)N[C@@H](CCCCN)C(=O)N[C@@H](CO)C(=O)N[C@@H](CC(=O)O)C(=O)N[C@@H](CCC(=O)O)C(=O)N[C@@H](CC(C)C)C(=O)N[C@@H](CC(C)C)C(=O)N[C@@H](Cc1c[nH]cn1)C(=O)N[C@@H](CC(N)=O)C(=O)N[C@@H](CCC(=O)O)C(=O)N[C@@H](C)C(=O)N[C@@H](C)C(=O)N[C@@H](C)C(=O)N[C@@H](CCCCN)C(=O)N[C@@H](CCCCNC(=O)CCC(=O)O[C@H]1CC[C@@]2(C)C(=CC[C@H]3[C@@H]4CC[C@H]([C@H](C)CCCC(C)C)[C@@]4(C)CC[C@@H]32)C1)C(N)=O)[C@@H](C)CC)[C@@H](C)CC)C(C)C [Compound 45] (Ac-WDEFDASISQVNEKINQSLEEIRKSDELLHNEAAAKK(Succinyl(4-O-cholesteryl))-NH2),9940,36.3
CC[C@H](C)[C@H](NC(=O)[C@H](CCCCN)NC(=O)[C@H](CCCCN)NC(=O)[C@H](CC(C)C)NC(=O)[C@H](CO)NC(=O)[C@H](CCC(N)=O)NC(=O)[C@H](CC(N)=O)NC(=O)[C@@H](NC(=O)[C@H](CCCCN)NC(=O)[C@H](CCCCN)NC(=O)[C@H](CC(=O)O)NC(=O)[C@H](Cc1ccccc1)NC(=O)[C@H](CCC(=O)O)NC(=O)[C@@H](NC(=O)[C@H](CCCCN)NC(=O)[C@H](CCCCN)NC(=O)[C@H](CC(N)=O)NC(=O)[C@@H](NC(=O)[C@H](CC(C)C)NC(=O)[C@H](CCC(=O)O)NC(=O)[C@H](CC(=O)O)NC(=O)[C@H](CO)NC(C)=O)C(C)C)[C@@H](C)CC)[C@@H](C)CC)C(=O)N[C@@H](CCC(=O)O)C(=O)N[C@@H](CCC(=O)O)C(=O)N[C@@H](CO)C(=O)N[C@@H](CC(=O)O)C(=O)N[C@@H](CCCCN)C(=O)N[C@@H](CCCCN)C(=O)N[C@@H](CCCCN)C(=O)N[C@@H](CC(C)C)C(=O)N[C@@H](CCC(=O)O)C(=O)N[C@@H](C)C(=O)N[C@@H](C)C(=O)N[C@@H](C)C(=O)N[C@@H](CCCCN)C(=O)N[C@@H](CCCCN)C(N)=O [Compound 51] (Ac-SDELVNKKIEFDKKINQSLKKIEESDKKKLEAAAKK-NH2),3200,18.8
CC[C@H](C)[C@H](NC(=O)[C@H](CCCCN)NC(=O)[C@H](CCCCN)NC(=O)[C@H](CC(C)C)NC(=O)[C@H](CO)NC(=O)[C@H](CCC(=O)O)NC(=O)[C@H](CCC(=O)O)NC(=O)[C@@H](NC(=O)[C@H](CCCCN)NC(=O)[C@H](CCCCN)NC(=O)[C@H](CC(N)=O)NC(=O)[C@@H](NC(=O)[C@H](CCC(=O)O)NC(=O)[C@H](CCC(=O)O)NC(=O)[C@@H](NC(=O)[C@H](CCCCN)NC(=O)[C@H](CCCCN)NC(=O)[C@H](CC(=O)O)NC(=O)[C@H](Cc1ccccc1)NC(=O)[C@H](CCC(=O)O)NC(=O)[C@H](CC(=O)O)NC(=O)[C@H](Cc1c[nH]c2ccccc12)NC(C)=O)[C@@H](C)CC)C(C)C)[C@@H](C)CC)C(=O)N[C@@H](CCC(=O)O)C(=O)N[C@@H](CCC(=O)O)C(=O)N[C@@H](CO)C(=O)N[C@@H](CC(=O)O)C(=O)N[C@@H](CCCCN)C(=O)N[C@@H](CCCCN)C(=O)N[C@@H](CC(C)C)C(=O)N[C@@H](CCC(=O)O)C(=O)N[C@@H](CCC(=O)O)C(=O)N[C@H](C(=O)N[C@@H](CC(N)=O)C(=O)N[C@@H](CCC(=O)O)C(=O)N[C@@H](C)C(=O)N[C@@H](C)C(=O)N[C@@H](C)C(=O)N[C@@H](CCCCN)C(=O)N[C@@H](CCCCNC(=O)CCC(=O)O[C@H]1CC[C@@]2(C)C(=CC[C@H]3[C@@H]4CC[C@H]([C@H](C)CCCC(C)C)[C@@]4(C)CC[C@@H]32)C1)C(N)=O)C(C)C [Compound 41] (Ac-WDEFDKKIEEVNKKIEESLKKIEESDKKLEEVNEAAAKK(Succinyl(4-O-cholesteryl))-NH2),17000,71.1
CC[C@H](C)[C@H](NC(=O)[C@H](CCCCN)NC(=O)[C@H](CCC(=O)O)NC(=O)[C@H](CC(C)C)NC(=O)[C@H](CO)NC(=O)[C@H](CCC(N)=O)NC(=O)[C@H](CC(N)=O)NC(=O)[C@@H](NC(=O)[C@H](CCCCN)NC(=O)[C@H](CCC(=O)O)NC(=O)[C@H](CC(N)=O)NC(=O)[C@@H](NC(=O)[C@H](CCC(N)=O)NC(=O)[C@H](CO)NC(=O)[C@H](C)NC(=O)[C@H](CC(=O)O)NC(=O)[C@H](Cc1ccccc1)NC(=O)[C@@H](NC(=O)[C@H](CC(C)C)NC(=O)[C@H](CCC(=O)O)NC(=O)[C@H](CC(=O)O)NC(=O)[C@H](Cc1ccc(O)cc1)NC(C)=O)C(C)C)C(C)C)[C@@H](C)CC)C(=O)N[C@@H](CCCNC(=N)N)C(=O)N[C@@H](CCCCN)C(=O)N[C@@H](CO)C(=O)N[C@@H](CC(=O)O)C(=O)N[C@@H](CCC(=O)O)C(=O)N[C@@H](CC(C)C)C(=O)N[C@@H](CC(C)C)C(=O)N[C@@H](Cc1c[nH]cn1)C(=O)N[C@@H](CC(N)=O)C(=O)N[C@H](C(=O)NCC(=O)N[C@@H](CO)C(=O)NCC(=O)N[C@@H](CO)C(=O)NCC(=O)N[C@@H](CCCCNC(=O)CCC(=O)O[C@H]1CC[C@@]2(C)C(=CC[C@H]3[C@@H]4CC[C@H]([C@H](C)CCCC(C)C)[C@@]4(C)CC[C@@H]32)C1)C(N)=O)C(C)C [Compound 25] (Ac-YDELVFDASQVNEKINQSLEKIRKSDELLHNVGSGSGK(Succinyl(4-O-cholesteryl))-NH2),7500,29.4
Ac-WDEFDASISQVNEKINQSLEEIRKSDELLHNVNAGLGSGSGK(Succinyl(4-O-cholesteryl))-NH2 [Compound 27],18400,27.2
Ac-LVKKIDEFDASISQVNEKINQSLEEIRKSDELLHNVGSGSGK(Succinyl(4-O-cholesteryl))-NH2 [Compound 29],15000,26.3
